Laboratory results: PubChem BioAssay AID1919003 (Molecular Pharmacology Branch, DTP, NCI, 2023)

System: 786-0 complex spheroids with HUVEC/MSC, growth % test/control
Test: Anticancer human tumor 786-0 cell line growth inhibition [AhR];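 note: compound exposure lasted seven days before the read-out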
Details: for IC50: curve of first compound; for viability, T/C: stronger effect = lower value
In short: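 Spheroids combined tumor cells with HUVEC endothelial cells and human MSCs as stroma. AhR antagonists were paired with standard or investigational drugs, each dosed in half-log steps down from near clinical Cmax, or from 10 microM where Cmax was unknown.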

[1] = second compound 0.1 µM, first compound 0.000949 µM
[2] = second compound 0.1 µM, first compound 0.003 µM
[3] = second compound 0.1 µM, first compound 0.00949 µM
[4] = second compound 0.1 µM, first compound 0.03 µM
[5] = second compound 0.1 µM, first compound 0.0949 µM
[6] = second compound 0.1 µM, first compound 0.3 µM
[7] = second compound 0.316 µM, first compound 0.000949 µM
[8] = second compound 0.316 µM, first compound 0.003 µM
[9] = second compound 0.316 µM, first compound 0.00949 µM
[10] = second compound 0.316 µM, first compound 0.03 µM
[11] = second compound 0.316 µM, first compound 0.0949 µM
[12] = second compound 0.316 µM, first compound 0.3 µM
[13] = second compound 1 µM, first compound 0.000949 µM
[14] = second compound 1 µM, first compound 0.003 µM
[15] = second compound 1 µM, first compound 0.00949 µM
[16] = second compound 1 µM, first compound 0.03 µM
[17] = second compound 1 µM, first compound 0.0949 µM
[18] = second compound 1 µM, first compound 0.3 µM
[19] = second compound 3.16 µM, first compound 0.000949 µM
[20] = second compound 3.16 µM, first compound 0.003 µM
[21] = second compound 3.16 µM, first compound 0.00949 µM
[22] = second compound 3.16 µM, first compound 0.03 µM
[23] = second compound 3.16 µM, first compound 0.0949 µM
[24] = second compound 3.16 µM, first compound 0.3 µM
[25] = second compound 10 µM, first compound 0.000949 µM
[26] = second compound 10 µM, first compound 0.003 µM
[27] = second compound 10 µM, first compound 0.00949 µM
[28] = second compound 10 µM, first compound 0.03 µM
[29] = second compound 10 µM, first compound 0.0949 µM
[30] = second compound 10 µM, first compound 0.3 µM
[31] = second compound 0.1 µM, first compound 0.0316 µM
[32] = second compound 0.1 µM, first compound 0.1 µM
[33] = second compound 0.1 µM, first compound 0.316 µM
[34] = second compound 0.1 µM, first compound 1 µM
[35] = second compound 0.1 µM, first compound 3.16 µM
[36] = second compound 0.1 µM, first compound 10 µM
[37] = second compound 0.316 µM, first compound 0.0316 µM
[38] = second compound 0.316 µM, first compound 0.1 µM
[39] = second compound 0.316 µM, first compound 0.316 µM
[40] = second compound 0.316 µM, first compound 1 µM
[41] = second compound 0.316 µM, first compound 3.16 µM
[42] = second compound 0.316 µM, first compound 10 µM
[43] = second compound 1 µM, first compound 0.0316 µM
[44] = second compound 1 µM, first compound 0.1 µM
[45] = second compound 1 µM, first compound 0.316 µM
[46] = second compound 1 µM, first compound 1 µM
[47] = second compound 1 µM, first compound 3.16 µM
[48] = second compound 1 µM, first compound 10 µM
[49] = second compound 3.16 µM, first compound 0.0316 µM
[50] = second compound 3.16 µM, first compound 0.1 µM
[51] = second compound 3.16 µM, first compound 0.316 µM
[52] = second compound 3.16 µM, first compound 1 µM
[53] = second compound 3.16 µM, first compound 3.16 µM
[54] = second compound 3.16 µM, first compound 10 µM
[55] = second compound 10 µM, first compound 0.0316 µM
[56] = second compound 10 µM, first compound 0.1 µM
[57] = second compound 10 µM, first compound 0.316 µM
[58] = second compound 10 µM, first compound 1 µM
[59] = second compound 10 µM, first compound 3.16 µM
[60] = second compound 10 µM, first compound 10 µM

Structure (SMILES): Nc1ncn(C2CC(O)C(CO)S2)c(=O)n1 (stereo not given) + Cc1ccccc1N=Nc1ccc(NC(=O)c2ccnn2C)c(C)c1
- IC50 (second compound 0.1 µM): > 300 nM
- IC50 (second compound 0.316 µM): > 300 nM
- IC50 (second compound 1 µM): > 300 nM
- IC50 (second compound 3.16 µM): > 300 nM
- IC50 (second compound 10 µM): > 300 nM
- viability, T/C [1]: 102%
- viability, T/C [2]: 99.8%
- viability, T/C [3]: 105%
- viability, T/C [4]: 99.6%
- viability, T/C [5]: 83.6%
- viability, T/C [6]: 68.7%
- viability, T/C [7]: 100%
- viability, T/C [8]: 100%
- viability, T/C [9]: 103%
- viability, T/C [10]: 98.2%
- viability, T/C [11]: 100%
- viability, T/C [12]: 73.1%
- viability, T/C [13]: 99.6%
- viability, T/C [14]: 96.5%
- viability, T/C [15]: 112%
- viability, T/C [16]: 97.1%
- viability, T/C [17]: 91.2%
- viability, T/C [18]: 75%
- viability, T/C [19]: 93.3%
- viability, T/C [20]: 99.9%
- viability, T/C [21]: 94%
- viability, T/C [22]: 101%
- viability, T/C [23]: 86%
- viability, T/C [24]: 69.6%
- viability, T/C [25]: 91.1%
- viability, T/C [26]: 108%
- viability, T/C [27]: 90.8%
- viability, T/C [28]: 88.2%
- viability, T/C [29]: 82.8%
- viability, T/C [30]: 63.4%

Structure (SMILES): O=C(C=Cc1cccc(S(=O)(=O)Nc2ccccc2)c1)NO + Cc1cncc(-c2nc(NCCc3c[nH]c4ccccc34)c3ncn(C(C)C)c3n2)c1
- IC50 (second compound 0.1 µM): 7060 nM
- IC50 (second compound 0.316 µM): 7680 nM
- IC50 (second compound 1 µM): 6530 nM
- IC50 (second compound 3.16 µM): 1600 nM
- IC50 (second compound 10 µM): < 31.6 nM
- viability, T/C [31]: 120%
- viability, T/C [32]: 113%
- viability, T/C [33]: 112%
- viability, T/C [34]: 119%
- viability, T/C [35]: 103%
- viability, T/C [36]: 26.5%
- viability, T/C [37]: 113%
- viability, T/C [38]: 118%
- viability, T/C [39]: 113%
- viability, T/C [40]: 113%
- viability, T/C [41]: 112%
- viability, T/C [42]: 31.4%
- viability, T/C [43]: 113%
- viability, T/C [44]: 111%
- viability, T/C [45]: 106%
- viability, T/C [46]: 106%
- viability, T/C [47]: 96.7%
- viability, T/C [48]: 22.4%
- viability, T/C [49]: 69.2%
- viability, T/C [50]: 68.2%
- viability, T/C [51]: 59.4%
- viability, T/C [52]: 53.7%
- viability, T/C [53]: 45%
- viability, T/C [54]: 11.8%
- viability, T/C [55]: 13.8%
- viability, T/C [56]: 8.02%
- viability, T/C [57]: 5.17%
- viability, T/C [58]: 0.6%
- viability, T/C [59]: 2.92%
- viability, T/C [60]: 1.45%

Structure (SMILES): CCc1c2c(nc3ccc(O)cc13)-c1cc3c(c(=O)n1C2)COC(=O)[C@]3(O)CC + Cc1ccccc1N=Nc1ccc(NC(=O)c2ccnn2C)c(C)c1
- IC50 (second compound 0.1 µM): 6.1 nM
- IC50 (second compound 0.316 µM): 6.33 nM
- IC50 (second compound 1 µM): 6.39 nM
- IC50 (second compound 3.16 µM): 6.1 nM
- IC50 (second compound 10 µM): 5.18 nM
- viability, T/C [1]: 106%
- viability, T/C [2]: 96.2%
- viability, T/C [3]: 21.1%
- viability, T/C [4]: 9.38%
- viability, T/C [5]: 3.43%
- viability, T/C [6]: 4.01%
- viability, T/C [7]: 107%
- viability, T/C [8]: 106%
- viability, T/C [9]: 19.7%
- viability, T/C [10]: 9.77%
- viability, T/C [11]: 4.26%
- viability, T/C [12]: 3.54%
- viability, T/C [13]: 101%
- viability, T/C [14]: 102%
- viability, T/C [15]: 22.9%
- viability, T/C [16]: 10.2%
- viability, T/C [17]: 4.47%
- viability, T/C [18]: 2.91%
- viability, T/C [19]: 98.1%
- viability, T/C [20]: 95.6%
- viability, T/C [21]: 21.6%
- viability, T/C [22]: 8.98%
- viability, T/C [23]: 4.32%
- viability, T/C [24]: 3.54%
- viability, T/C [25]: 89.7%
- viability, T/C [26]: 78.8%
- viability, T/C [27]: 18.1%
- viability, T/C [28]: 8.91%
- viability, T/C [29]: 4.41%
- viability, T/C [30]: 3.24%

Structure (SMILES): Nc1ccn(C2OC(CO)C(O)C2(F)F)c(=O)n1 (stereo not given) + Cc1ccccc1N=Nc1ccc(NC(=O)c2ccnn2C)c(C)c1
- IC50 (second compound 0.1 µM): < 31.6 nM
- IC50 (second compound 0.316 µM): < 31.6 nM
- IC50 (second compound 1 µM): < 31.6 nM
- IC50 (second compound 3.16 µM): < 31.6 nM
- IC50 (second compound 10 µM): < 31.6 nM
- viability, T/C [31]: 8.08%
- viability, T/C [32]: 6.67%
- viability, T/C [33]: 7.73%
- viability, T/C [34]: 5.06%
- viability, T/C [35]: 7.17%
- viability, T/C [36]: 6.66%
- viability, T/C [37]: 7.8%
- viability, T/C [38]: 6.77%
- viability, T/C [39]: 5.95%
- viability, T/C [40]: 8.69%
- viability, T/C [41]: 7.54%
- viability, T/C [42]: 7.11%
- viability, T/C [43]: 6.79%
- viability, T/C [44]: 6.35%
- viability, T/C [45]: 7.35%
- viability, T/C [46]: 5.82%
- viability, T/C [47]: 7.07%
- viability, T/C [48]: 6.7%
- viability, T/C [49]: 7.91%
- viability, T/C [50]: 5.76%
- viability, T/C [51]: 6.46%
- viability, T/C [52]: 4.78%
- viability, T/C [53]: 6.9%
- viability, T/C [54]: 7.29%
- viability, T/C [55]: 9.54%
- viability, T/C [56]: 8.5%
- viability, T/C [57]: 7.09%
- viability, T/C [58]: 6.47%
- viability, T/C [59]: 5.53%
- viability, T/C [60]: 6.11%
